Source: patent US20220362299A1, “ENGINEERED NATURAL KILLER CELLS AND METHODS FOR USING THE SAME IN IMMUNOTHERAPY AND AUTOPHAGY INHIBITON TECHNIQUES” (Purdue Research Foundation, priority 2019, published 2022)
Blank lines part the entries; values can stand above or below the molecule they belong to.

Legend:
GBM43 cells = assay: ELISA of CCL5 and CXCL10 in supernatant of GBM43 cells; type: cell-based, human; settings: with CQ 50 μM, 24 h
From the text: To evaluate changes in the protein levels of these chemokines and gain more insight into the underlying molecular mechanisms, chemokine concentrations were quantified in the conditioned media of CQ-treated GBM43 cells using ELISA in absence and presence of various pharmacological inhibitors driving signaling pathways for these chemokines. This included the PI3K inhibitor LY294002, NF-κB inhibitor BAY11-7082 and JNK inhibitor SP600125.
More specifically, to measure secreted CCL5 and CXCL10, GBM43 cells were treated with CQ at a final concentration of 50 μM in presence or absence of various small molecule inhibitors, including LY294002, BAY11-7082 and SP600125 for 24 hours. Supernatants were collected and the levels of CCL5 and CXCL10 were quantified using Human CCL5 and CXCL10 Biolegend-ELISA MAX™ Deluxe Sets according to the manufacturer's directions. To look at the levels of multiple chemokines secretion from GBM43 cells, the cell culture supernatants were also collected and all the selected targets were determined with the chemokine array provided by Eve Technologies (Calgary, Canada).

pNK cells [1] = assay: Effect of adenosine on pNK cell viability (CCK-8) and NKG2D expression (flow cytometry); type: cell-based, human; settings: 1000 μM adenosine, 24 h
Description: To verify this, pNK cells were seeded into a 24-well plate at a density of 5×10^5 cells/well in 500 μL medium. Adenosine was then added to a final concentration of 1000 μM. After 24 h, the cells were collected and their viability (%) was determined via a CCK-8 assay (subpart A of FIG. 2). The NKG2D expression (% and MFI) was determined by flow cytometry (subpart B of FIG. 2). […] These findings support that there is a need to increase NKG2D expression on NK cells through engineering.

pNK cells [2] = assay: Transwell BBB migration assay of pNK cells; type: cell-based, human; settings: 100 ng/mL in lower chamber, 6 hours
Description: To determine involvement of CCL5 and CXCL10 in the migration of NK cells, the migration of activated pNK cells toward CCL5 and CXCL10 gradients was then tracked using an in vitro BBB model setup by a direct contact co-culture of primary human astrocytes and […] human cerebral microvessel endothelial cells (FIG. 12, subpart G).
An in vitro direct contact co-culture blood-brain barrier (BBB) model was established as previously described^53. Briefly, human astrocytes were seeded at a density of 4×10^4 cells/cm^2 into 24-well Transwell® inserts (pore size 5 μm) pre-coated with 2 μg/cm^2 poly-L-lysine and allowed to proliferate/differentiate for 48 hours in media. Media was then removed and the hCMEC/D3 cells suspended into EBM-2 media were seeded at a density of 1×10^5 cells/cm^2.
The co-culture was grown in EBM-2 with media changes every other day for an additional 7 days before studies were conducted. 600 μL of RPMI1640 medium supplemented with 1% FBS containing recombinant CCL5 or CXCL10 at 100 ng/mL was placed in the lower chamber of the Transwell® plate. Activated pNK cells (5×10^5) in 100 μL RPM11640 medium supplemented with 1% FBS were placed into the upper chamber (5-μm pore size). After incubation for 6 hours at 37° C. and 5% CO2, the number of pNK cells that migrated into the lower chamber was determined by flow cytometry. […]

[3] = biological target: T1, CD73 (ecto-5'-nucleotidase, NT5E) on patient-derived GBM43 glioblastoma cells (human, UniProt P21589 27-549); assay: immunofluorescence (Protein L) on sections of subcutaneous GBM43 xenograft tumors
T1 construct: whole, on cells; Endogenous surface CD73 of human patient-derived GBM43 cells, in culture or as xenograft tumors
T1 sequence (looked up): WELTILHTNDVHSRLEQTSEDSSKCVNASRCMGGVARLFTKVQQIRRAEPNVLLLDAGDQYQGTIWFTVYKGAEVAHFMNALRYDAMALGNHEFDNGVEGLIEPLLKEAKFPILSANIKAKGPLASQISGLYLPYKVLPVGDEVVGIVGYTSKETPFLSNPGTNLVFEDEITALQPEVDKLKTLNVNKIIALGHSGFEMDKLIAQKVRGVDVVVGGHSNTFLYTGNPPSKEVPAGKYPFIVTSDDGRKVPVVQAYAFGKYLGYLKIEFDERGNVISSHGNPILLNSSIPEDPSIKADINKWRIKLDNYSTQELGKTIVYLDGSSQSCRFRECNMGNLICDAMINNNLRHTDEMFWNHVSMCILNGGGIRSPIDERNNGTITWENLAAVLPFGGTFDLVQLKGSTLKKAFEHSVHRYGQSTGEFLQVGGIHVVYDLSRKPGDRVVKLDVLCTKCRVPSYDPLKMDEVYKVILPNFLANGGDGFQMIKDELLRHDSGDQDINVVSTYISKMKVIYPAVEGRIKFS

CD73 = CD73 activity of GBM43 cells (AMP hydrolysis, malachite green phosphate assay); type: cell-based, human
Description: To test for CD73 activity and its ability to generate adenosine, GBM43 cells were seeded at 2×10^4 cells per well in a 96-well plate in complete DMEM. After overnight incubation, GBM43 cells were incubated with anti-CD73 scFv following uPA (100 nM)-mediated cleavage from either CD73.mCAR-NK92 or CD73.mCAR-pNK cells during incubation for 6 hours. Then, the cell medium was removed and cells were rinsed three times with phosphate-free buffer (117 mM NaCl, 5.3 mM KCl, 1.8 mM MgCl2, 26 mM NaHCO3, 10 mM glucose, pH 7.4, diluted in ddH2O). AMP (250 μM final), diluted in phosphate-free buffer, was added and incubated for 10 min at 37° C. Finally, the phosphate (Pi) concentrations resulting from AMP hydrolysis were measured using a malachite green phosphate assay kit following the manufacturer's instructions.

Molecule: Cc1ccc(S(=O)(=O)/C=C/C#N)cc1 [BAY11-7082]
inhibition of the CQ-elevated production of CCL5 and CXCL10 (GBM43 cells): significantly inhibited

Molecule: Nc1ncnc2c1ncn2[C@@H]1O[C@H](CO)[C@@H](O)[C@H]1O [adenosine]
cell viability of pNK cells (pNK cells [1]; CCK-8): clear negative affect | NKG2D expression on pNK cells (pNK cells [1]; flow cytometry): decreased

Molecule: CXCL10: Recombinant human CXCL10
migration of activated pNK cells along ligand gradient across in vitro BBB (pNK cells [2]): significantly increased

B1: CCL5: Recombinant human RANTES (CCL5) (protein, UniProt P13501 24-91, looked up)
C-C motif chemokine 5: SPYSSDTTPCCFAYIARPLPRAHIKEYFYTSGKCSNPAVVFVTRKNRQVCANPEKKWVREYINSLEMS
migration of activated pNK cells along ligand gradient across in vitro BBB (pNK cells [2]): significantly increased

binding result [3]: binds
B2: anti-CD73 scFv cleaved by uPA or tumor-associated proteases from Construct 1 (CD73.mCAR) on engineered NK cells (scFv)
scFv: EVQLLESGGGLVQPGGSLRLSCAASGFTFSSYAYSWVRQAPGKGLEWVSAISGSGGRTYYADSVKGRFTISRDNSKNTLYLQMNSLRAEDTAVYYCARLGYGRVDEWGRGTLVTVSSGGGGSGGGGSGGGGSQSVLTQPPSASGTPGQRVTISCSGSLSNIGRNPVNWYQQLPGTAPKLLIYLDNLRLSGVPDRFSGSKSGTSASLAISGLQSEDEADYYCATWDDSHPGWTFGGGTKLTVLGGGGSGGGGSGGGGS
notes: Soluble fragment released from CD73.mCAR-NK92 or CD73.mCAR-pNK cells, by 100 nM uPA in vitro or by tumor proteases in vivo; also called αCD73 scFv; aCD73 scFv; not shown: the cleavage site is

B3: anti-CD73 scFv: CD73-blocking single chain antibody fragment released from the CAR by uPA / tumor-associated protease cleavage (protein)
scFv: B2 scFv
modifications: left off: small tags and cut ends
production of extracellular adenosine by GBM43 cells (CD73 activity) (CD73; scFv cleaved by uPA from CD73.mCAR-NK92 cells): significantly decreased production | ability of GBM43 cells to produce adenosine (CD73 activity) (CD73; scFv cleaved from CD73.mCAR-pNK cells): significantly reduced ability to produce adenosine
